Structures can show the parent of a compound that is named as a salt.
System: bacterial strains that express KPC β-lactamases
Test: Synergy MIC / standard BLI potentiation MIC assay against strains expressing KPC β-lactamases
Type: cell-based
Conditions: in the presence of a β-lactam; comparator Avibactam
Protocol: The experimental protocol was performed according to Clinical and Laboratory Standards Institute (CLSI) guidelines with modifications as described below (CLSI guidelines can be derived from the CLSI document M07-A9 published in January 2012: “Methods for Dilution Antimicrobial Susceptibility Tests for Bacteria That Grow Aerobically; Approved Standard-Ninth Edition”).
To prepare for MIC testing, frozen glycerol stocks of clinical isolates (Klebsiella pneumoniae, Eschericia coli, Enterobacter spp, Citrobacter spp, or Pseudomonas aeruginosa) were used to streak for isolated colonies on rich, non-selective, tryptic soy agar containing 5% sheep's blood (TSAB). Frozen glycerol stocks of laboratory engineered, isogenic E. coli strains, which contain cloned β-lactamase expressing plasmids were used to streak for isolated colonies on rich, selective LB agar supplemented with 25 μg/mL tetracycline to maintain the plasmid. All strains were incubated at 37° C. for 18-24 hrs.
On the day of testing, primary cultures were started by scraping off 5-10 colonies from the TSAB plates containing clinical strains or the tetracycline supplemented LB plates containing engineered strains. The clinical strain material was suspended in ˜5 mL of cation adjusted Mueller Hinton Broth (CAMHB) in 14 mL culture tubes. The engineered strain material was suspended in CAMHB (supplemented with 25 μg/mL tetracycline) in 14 mL culture tubes. All strains were incubated at 37° C. with aeration (200 rpm) for ˜2 hrs until the optical density at 600 nm (OD600) was >0.1.
The two compound components of the assay were each diluted in CAMHB and added to the 96-well broth microdilution assay plates. 50 μL of the β-lactam was added to each well of the assay plate in 2-fold dilutions with final concentrations ranging from 128 to 0.13 μg/mL. 25 μL, of the BLI compound was added to all wells in the broth microdilution plates at a final concentration of 4 μg/mL. Inoculum cultures were prepared by standardizing the primary cultures to OD600=0.1 and then adding 20 μL of the adjusted primary culture per 1 mL CAMHB for clinical strains or CAMHB (supplemented with tetracycline at 100 μg/mL) for engineered strains, so that the final inoculum density was ˜10^5 colony forming units per milliliter. Diluted inoculum cultures were used to inoculate 25 μl, per well in 96-well broth microdilution assay plates. The final volume of each well was 100 μL and contained a β-lactam at different concentrations, a BLIcompound at 4 μg/mL concentration, the bacterial culture at an OD600 of approximately 0.001 and when necessary tetracycline at 25 μg/mL.
Plates were incubated for 18-20 hours at 37° C. with aeration (200 rpm). Following incubation, growth was confirmed visually placing plates over a viewing apparatus (stand with a mirror underneath) and then OD600 was measured using a SpectraMax 340PC384 plate reader (Molecular Devices, Sunnyvale, Calif.). Growth was defined as turbidity that could be detected with the naked eye or achieving minimum OD600 of 0.1. MIC values were defined as the lowest concentration producing no visible turbidity.
The synergy MIC (sMIC) assay determines the concentration of the BLI required to potentiate the activity of a fixed concentration of a β-lactam antibiotic against β-lactamase producing bacterial strains. The experimental protocol was performed according to Clinical and Laboratory Standards Institute (CLSI) guidelines with modifications as described below (CLSI guidelines can be derived from the CLSI document M07-A9 published in January 2012: “Methods for Dilution Antimicrobial Susceptibility Tests for Bacteria That Grow Aerobically; Approved Standard-Ninth Edition”). […]

O=C1N2C[C@@H](CC[C@H]2c2nnco2)N1OS(=O)(=O)O [Compound 701, (2S,5R)-2-(1,3,4-oxadiazol-2-yl)-7-oxo-1,6-diazabicyclo[3.2.1]octan-6-yl hydrogen sulfate]
more active than Avibactam for at least one bacterial strain that expresses KPC β-lactamase and/or better spectrum of activity against KPC strains: more active than Avibactam

NCc1nnc([C@@H]2CC[C@@H]3CN2C(=O)N3OS(=O)(=O)O)o1 [Compound 702, (2S,5R)-2-(5-(aminomethyl)-1,3,4-oxadiazol-2-yl)-7-oxo-1,6-diazabicyclo[3.2.1]octan-6-yl hydrogen sulfate]
more active than Avibactam for at least one bacterial strain that expresses KPC β-lactamase and/or better spectrum of activity against KPC strains: more active than Avibactam

NCCc1nnc([C@@H]2CC[C@@H]3CN2C(=O)N3OS(=O)(=O)O)o1 [Compound 703, (2S,5R)-2-(5-(2-aminoethyl)-1,3,4-oxadiazol-2-yl)-7-oxo-1,6-diazabicyclo[3.2.1]octan-6-yl hydrogen sulfate]
more active than Avibactam for at least one bacterial strain that expresses KPC β-lactamase and/or better spectrum of activity against KPC strains: more active than Avibactam

N=C(N)NCCc1nnc([C@@H]2CC[C@@H]3CN2C(=O)N3OS(=O)(=O)O)o1 [Compound 705, (2S,5R)-2-(5-(2-guanidinoethyl)-1,3,4-oxadiazol-2-yl)-7-oxo-1,6-diazabicyclo[3.2.1]octan-6-yl hydrogen sulfate]
more active than Avibactam for at least one bacterial strain that expresses KPC β-lactamase and/or better spectrum of activity against KPC strains: more active than Avibactam

NC(=O)c1nnc([C@@H]2CC[C@@H]3CN2C(=O)N3OS(=O)(=O)O)o1 [Compound 706, (2S,5R)-2-(5-carbamoyl-1,3,4-oxadiazol-2-yl)-7-oxo-1,6-diaza-bicyclo[3.2.1]octan-6-yl hydrogen sulfate]
more active than Avibactam for at least one bacterial strain that expresses KPC β-lactamase and/or better spectrum of activity against KPC strains: more active than Avibactam

O=C1N2C[C@@H](CC[C@H]2c2nnc(C3CNC3)o2)N1OS(=O)(=O)O [Compound 708, (2S,5R)-2-(5-(azetidin-3-yl)-1,3,4-oxadiazol-2-yl)-7-oxo-1,6-diazabicyclo[3.2.1]octan-6-yl hydrogen sulfate]
more active than Avibactam for at least one bacterial strain that expresses KPC β-lactamase and/or better spectrum of activity against KPC strains: more active than Avibactam

N=C(N)N1CC(c2nnc([C@@H]3CC[C@@H]4CN3C(=O)N4OS(=O)(=O)O)o2)C1 [Compound 709, (2S,5R)-2-(5-(1-carbamimidoylazetidin-3-yl)-1,3,4-oxadiazol-2-yl)-7-oxo-1,6-diazabicyclo[3.2.1]octan-6-yl hydrogen sulfate]
more active than Avibactam for at least one bacterial strain that expresses KPC β-lactamase and/or better spectrum of activity against KPC strains: more active than Avibactam

O=C1N2C[C@@H](CC[C@H]2c2nnc(C3CCNC3)o2)N1OS(=O)(=O)O (stereo partly drawn) [Compound 710, (2S,5R)-7-oxo-2-(5-(pyrrolidin-3-yl)-1,3,4-oxadiazol-2-yl)-1,6-diazabicyclo[3.2.1]octan-6-yl hydrogen sulfate]
more active than Avibactam for at least one bacterial strain that expresses KPC β-lactamase and/or better spectrum of activity against KPC strains: more active than Avibactam

O=C1N2C[C@@H](CC[C@H]2c2nnc(C3CCNCC3)o2)N1OS(=O)(=O)O [Compound 711, (2S,5R)-7-oxo-2-(5-(piperidin-4-yl)-1,3,4-oxadiazol-2-yl)-1,6-diazabicyclo[3.2.1]octan-6-yl hydrogen sulfate]
more active than Avibactam for at least one bacterial strain that expresses KPC β-lactamase and/or better spectrum of activity against KPC strains: more active than Avibactam

NCCCc1nnc([C@@H]2CC[C@@H]3CN2C(=O)N3OS(=O)(=O)O)o1 [Compound 720, (2S,5R)-2-(5-(3-aminopropyl)-1,3,4-oxadiazol-2-yl)-7-oxo-1,6-diazabicyclo[3.2.1]octan-6-yl hydrogen sulfate]
more active than Avibactam for at least one bacterial strain that expresses KPC β-lactamase and/or better spectrum of activity against KPC strains: more active than Avibactam

N=C(N)NCc1nnc([C@@H]2CC[C@@H]3CN2C(=O)N3OS(=O)(=O)O)s1 [Compound 721, (2S,5R)-2-(5-(guanidinomethyl)-1,3,4-thiadiazol-2-yl)-7-oxo-1,6-diazabicyclo[3.2.1]octan-6-yl hydrogen sulfate]
more active than Avibactam for at least one bacterial strain that expresses KPC β-lactamase and/or better spectrum of activity against KPC strains: more active than Avibactam

CNCCc1nnc([C@@H]2CC[C@@H]3CN2C(=O)N3OS(=O)(=O)O)o1 [Compound 722, (2S,5R)-2-(5-(2-(methylamino)ethyl)-1,3,4-oxadiazol-2-yl)-7-oxo-1,6-diazabicyclo[3.2.1]octan-6-yl hydrogen sulfate]
more active than Avibactam for at least one bacterial strain that expresses KPC β-lactamase and/or better spectrum of activity against KPC strains: more active than Avibactam

N=C(N)NCC1(c2nnc([C@@H]3CC[C@@H]4CN3C(=O)N4OS(=O)(=O)O)o2)CC1 [Compound 723, (2S,5R)-2-(5-(1-(guanidinomethyl)cyclopropyl)-1,3,4-oxadiazol-2-yl)-7-oxo-1,6-diazabicyclo[3.2.1]octan-6-yl hydrogen sulfate]
more active than Avibactam for at least one bacterial strain that expresses KPC β-lactamase and/or better spectrum of activity against KPC strains: more active than Avibactam

NC1(Cc2nnc([C@@H]3CC[C@@H]4CN3C(=O)N4OS(=O)(=O)O)o2)CC1 [Compound 724, (2S,5R)-2-(5-((1-aminocyclopropyl)methyl)-1,3,4-oxadiazol-2-yl)-7-oxo-1,6-diazabicyclo[3.2.1]octan-6-yl hydrogen sulfate]
more active than Avibactam for at least one bacterial strain that expresses KPC β-lactamase and/or better spectrum of activity against KPC strains: more active than Avibactam

O=C1N2C[C@@H](CC[C@H]2c2nnc(CNC3CNC3)o2)N1OS(=O)(=O)O [Compound 726, (2S,5R)-2-(5-((azetidin-3-ylamino)methyl)-1,3,4-oxadiazol-2-yl)-7-oxo-1,6-diazabicyclo[3.2.1]octan-6-yl hydrogen sulfate]
more active than Avibactam for at least one bacterial strain that expresses KPC β-lactamase and/or better spectrum of activity against KPC strains: more active than Avibactam

N[C@H]1C[C@H](c2nnc([C@@H]3CC[C@@H]4CN3C(=O)N4OS(=O)(=O)O)o2)C1 [Compound 727, (2S,5R)-2-(5-((1r,3S)-3-aminocyclobutyl)-1,3,4-oxadiazol-2-yl)-7-oxo-1,6-diazabicyclo[3.2.1]octan-6-yl hydrogen sulfate]
more active than Avibactam for at least one bacterial strain that expresses KPC β-lactamase and/or better spectrum of activity against KPC strains: more active than Avibactam

N[C@H]1C[C@@H](Cc2nnc([C@@H]3CC[C@@H]4CN3C(=O)N4OS(=O)(=O)O)o2)C1 [Compound 728, (2S,5R)-2-(5-(((1s,3R)-3-aminocyclobutyl)methyl)-1,3,4-oxadiazol-2-yl)-7-oxo-1,6-diazabicyclo[3.2.1]octan-6-yl hydrogen sulfate]
more active than Avibactam for at least one bacterial strain that expresses KPC β-lactamase and/or better spectrum of activity against KPC strains: more active than Avibactam

N[C@@H]1CC[C@H](c2nnc([C@@H]3CC[C@@H]4CN3C(=O)N4OS(=O)(=O)O)o2)C1 [Compound 729, (2S,5R)-2-(5-((1S,3R)-3-aminocyclopentyl)-1,3,4-oxadiazol-2-yl)-7-oxo-1,6-diazabicyclo[3.2.1]octan-6-yl hydrogen sulfate]
more active than Avibactam for at least one bacterial strain that expresses KPC β-lactamase and/or better spectrum of activity against KPC strains: more active than Avibactam

N=C(N)NCC(O)Cc1nnc([C@@H]2CC[C@@H]3CN2C(=O)N3OS(=O)(=O)O)o1 (stereo partly drawn) [Compound 730, (2S,5R)-2-(5-(3-guanidino-2-hydroxypropyl)-1,3,4-oxadiazol-2-yl)-7-oxo-1,6-diazabicyclo[3.2.1]octan-6-yl hydrogen sulfate]
more active than Avibactam for at least one bacterial strain that expresses KPC β-lactamase and/or better spectrum of activity against KPC strains: more active than Avibactam

Reference: patent US8933232B2, “1,3,4-oxadiazole and 1,3,4-thiadiazole beta-lactamase inhibitors” (priority 2012, dated 2015)
